# Measurements reported in article PMC3590912 (Journal of medicinal chemistry, 2012).
# Key:
# [1] = In vitro metabolic stability in hepatic microsomes with NADPH; conditions: for in vitro metabolic stability (in words): hepatic microsomes with NADPH, compared with 1
# [2] = test system: mice; assay: Urearetic activity: urine osmolality in mice under dDAVP stimulation; assay type: in vivo, mouse; conditions: 400 μg intraperitoneal, dDAVP 1 h later, versus formulation alone
# [3] = Pharmacokinetics and renal accumulation in mice; conditions: intraperitoneal bolus 400 μg, for many hours
SMILES,in vitro metabolic stability (in words) [1],reduction of urine osmolality [2],improvement of in vitro metabolic stability compared to 1 [1],"3k concentration in blood, kidney and urine [3] [µM]"
"O=S(=O)(c1ccc(OC(F)(F)F)cc1)c1nnn2c1nc(NCc1cccs1)c1sccc12 [3d, Thiophen-2-ylmethyl-[3-(4-trifluoromethoxybenzenesulfonyl)thieno[2,3-e][1,2,3]triazolo-[1,5-a]pyrimidin-5-yl]amine]",improved metabolic stability,–,–,–
"O=S(=O)(c1ccc(Br)cc1)c1nnn2c1nc(NCc1cccs1)c1sccc12 [3i, [3-(4-Bromobenzenesulfonyl)thieno[2,3-e][1,2,3]triazolo-[1,5-a]pyrimidin-5-yl]thiophen-2-ylmethylamine]",improved metabolic stability,–,–,–
"O=S(=O)(c1ccc(C(F)(F)F)cc1)c1nnn2c1nc(NCc1cccs1)c1sccc12 [3c, Thiophen-2-ylmethyl-[3-(4-trifluoromethylbenzenesulfonyl)thieno[2,3-e][1,2,3]triazolo[1,5-a]pyrimidin-5-yl]amine]",improved metabolic stability,–,–,–
"CC(F)(F)c1ccc(S(=O)(=O)c2nnn3c2nc(NCc2cccs2)c2sccc23)cc1 [3k, [3-[4-(1,1-Difluoroethyl)benzenesulfonyl]thieno[2,3-e]-[1,2,3]triazolo[1,5-a]pyrimidin-5-yl]thiophen-2-ylmethylamine]",–,~ 0.5 Osm/kg H2O,~ 40 fold,> 1
